# Test results as given in patent US20090023737A1, “Imidazo-Pyridazines, Triazolo-Pyridazines and Related Benzodiazepine Receptor Ligands” (NEUROGEN CORPORATION, priority 2004, published 2009).
# Target: benzodiazepine site of the GABAA receptor
# Experiment: Radioligand binding assay, 3H-Ro15-1788 (Flumazenil), purified rat cortical membranes
# Conditions: previously determined; used in the Cheng-Prusoff equation; read-out: binding dissociation constant (Kd) of 3H-Ro15-1788
structure (smiles),measurement,value
CCOC(=O)c1ncn2c1CN(C)C(=O)c1cc(F)ccc1-2 [^3H-Ro15-1788],Kd,1 nM
